Activity calls are given as the source filed them. The calls are words filed in the database; no cut-off is given here.
How the values were obtained:
SW480 = experiment: Cytotoxicity against Homo sapiens (human) SW480 cells after 72 hr by MTT assay; format: functional, cell-based; details: SW480, 72 h
KB [1] = experiment: Cytotoxicity against Homo sapiens (human) KB cells after 72 hr by MTT assay; format: functional, cell-based
A549 = experiment: Cytotoxicity against Homo sapiens (human) A549 cells after 72 hr by MTT assay; format: functional, cell-based; details: A549, 72 h
KB [2] = experiment: Induction of apoptosis in Homo sapiens (human) KB cells assessed as nuclear fragmentation at 5 to 10 uM after 72 hr using AO/EB staining by fluorescence microscopy; format: functional, cell-based
KB [3] = experiment: Induction of apoptosis in Homo sapiens (human) KB cells assessed as appearance of apoptotic bodies n at 5 to 10 uM after 72 hr using AO/EB staining by fluorescence microscopy; format: functional, cell-based
KB [4] = experiment: Induction of apoptosis in Homo sapiens (human) KB cells assessed as increase in cleaved caspase 3 level after 72 hr by Western blot analysis; format: functional, cell-based
KB [5] = experiment: Induction of apoptosis in Homo sapiens (human) KB cells assessed as upregulation of bax expression at 5 to 15 uM after 72 hr by Western blot analysis; format: functional, cell-based
KB [6] = experiment: Induction of apoptosis in Homo sapiens (human) KB cells assessed as early apoptic cells with nuclear condensation at 5 to 10 uM after 72 hr using AO/EB staining by fluorescence microscopy; format: functional, cell-based
KB [7] = experiment: Induction of apoptosis in Homo sapiens (human) KB cells assessed as downregulation of bcl2 expression at 5 to 15 uM after 72 hr by Western blot analysis; format: functional, cell-based
KB [8] = experiment: Induction of apoptosis in Homo sapiens (human) KB cells assessed as nuclear condensation at 5 to 10 uM after 72 hr using Hoechst/PI staining by fluorescence microscopy; format: functional, cell-based
[9] = Antiproliferative activity against Homo sapiens (human) monocytes; format: cell-based; details: Monocyte
Leishmania = experiment: Antileishmanial activity against Leishmania promastigotes; format: functional, organism-based

Row | SMILES | IC50 (SW480) | IC50 (KB [1]) | IC50 (A549) | also measured
1 | O=C1OCc2c1c(-c1ccc3c(c1)OCO3)c1cc3c(cc1c2O)OCO3 [TAIWANIN E] | > 100 µM | 19.7 µM | 53.3 µM | 
2 | COc1ccc(OC)c(-c2c3c(c(O)c4cc5c(cc24)OCO5)COC3=O)c1 | > 100 µM | > 100 µM | > 100 µM | 
3 | COc1ccc(-c2c3c(c(O)c4cc5c(cc24)OCO5)COC3=O)cc1OC | > 100 µM | 45.2 µM | 39.5 µM | 
4 | COc1cc(OC)cc(-c2c3c(c(O)c4cc5c(cc24)OCO5)COC3=O)c1 | > 100 µM | 33.3 µM | > 100 µM | 
5 | COc1ccc(-c2c3c(c(O)c4cc5c(cc24)OCO5)COC3=O)cc1 | > 100 µM | > 100 µM | 35.6 µM | 
6 | COc1cc([C@@H]2c3cc4c(cc3[C@@H](O[C@@H]3O[C@@H]5CO[C@@H](C)O[C@H]5[C@H](O)[C@H]3O)[C@H]3COC(=O)[C@H]23)OCO4)cc(OC)c1O [ETOPOSIDE] | 6.4 µM | 8.3 µM | 3.9 µM | 
7 | COc1cc(-c2c3c(c(O)c4cc5c(cc24)OCO5)COC3=O)cc(OC)c1OC [DEHYDROPODOPHYLLOTOXIN] | > 100 µM | 29.1 µM | 107 µM | 
8 | Cc1ccc(-c2c3c(c(O)c4cc5c(cc24)OCO5)COC3=O)cc1 | 4 µM | 18.9 µM | 30 µM | Activity (KB [2]): Active; Activity (KB [3]): Active; Activity (KB [4]): Dose-dependent effect; Activity (KB [5]): Active; Activity (KB [6]): Active; Activity (KB [7]): Active; Activity (KB [8]): Active
9 | O=C1OCc2c1c(-c1ccccc1)c1cc3c(cc1c2O)OCO3 | > 100 µM | > 100 µM | > 100 µM | 
10 | COc1ccccc1-c1c2c(c(O)c3cc4c(cc13)OCO4)COC2=O | 21.1 µM | > 100 µM | > 100 µM | 
11 | COc1cc2c(O)c3c(c(-c4ccc5c(c4)OCO5)c2cc1OC)C(=O)OC3 [DIPHYLLIN] | 3.4 µM | 5.3 µM | 8 µM | IC50 [9]: 35.2 µM; IC50 (Leishmania): 14.4 µM
12 | COc1cccc(-c2c3c(c(O)c4cc5c(cc24)OCO5)COC3=O)c1 | > 100 µM | > 100 µM | 68.6 µM | 

Source: ChEMBL document CHEMBL3044864, “Synthesis and in vitro anticancer activities of novel aryl-naphthalene lignans” (Med Chem Res, 2012)
